How the values were obtained:
[1] = system: L428 cells; test: Xenograft in NSG mice, HE staining and immunohistochemistry; format: in vivo; settings: for Injection site: Tumour cell necrosis/apoptosis: Marked / Injection site: Tumour cell necrosis/apoptosis: Mild / Injection site: Tumour cell necrosis/apoptosis: Minimal / Injection site: Tumour cell necrosis/apoptosis: Moderate / Injection site: Tumour cell necrosis/apoptosis: No / Injection site: Tumour cell necrosis/apoptosis: Overall / Injection site: Tumour cell necrosis/apoptosis: Severe / Injection site: Tumour infiltration: Marked / Injection site: Tumour infiltration: Mild / Injection site: Tumour infiltration: Minimal / Injection site: Tumour infiltration: Moderate / Injection site: Tumour infiltration: No / Injection site: Tumour infiltration: Overall / Injection site: Tumour infiltration: Severe / Liver: Tumour infiltration: Marked / Liver: Tumour infiltration: Mild / Liver: Tumour infiltration: Minimal / Liver: Tumour infiltration: Moderate / Liver: Tumour infiltration: No / Liver: Tumour infiltration: Overall / Liver: Tumour infiltration: Severe / Tumour presence: Animals with tumour infiltration in liver and in the injection area / Tumour presence: Overall / Liver: Tumour cell necrosis/apoptosis: Marked / Liver: Tumour cell necrosis/apoptosis: Mild / Liver: Tumour cell necrosis/apoptosis: Minimal / Liver: Tumour cell necrosis/apoptosis: Moderate / Liver: Tumour cell necrosis/apoptosis: No / Liver: Tumour cell necrosis/apoptosis: Overall / Liver: Tumour cell necrosis/apoptosis: Severe: % of mice
Text: Immunodeficient NOD-SCID-gammac−/− (NSG) mice aged 5 to 6 weeks were purchased from Charles River (NOD.Cg-Prkdcscid Il2rgtm1Wjl/SzJ). The mice arrived two weeks before the beginning of the experiments and were housed in micro-isolator cages during the entire course of the study. Immediately prior to the injection of Hodgkin lymphoma cells, mice were exposed to 3 Gy gamma irradiation using an IBL637 ^137Cs irradiator at a dose rate of 0.61 Gy/min. From 10^3 to 10^6 cells, either from the original cell lines or following amplification, were injected intravenously via the retro-orbital sinus. The mice were sacrificed by cervical dislocation and different organs were analysed and tumoural infiltration examined using multiple techniques.
Two independent experiments were performed to investigate the dose-effect of EDO-S101 in NSG mice eight weeks after xenografting with L428 cells as in Example 8. The aim of the protocol shown in FIG. […]
The mice were sacrificed by cervical dislocation. The sampled organs consisted of the eyes (site of injection), liver, spleen and bone marrow. Following dissection of different organs, including tumours, the first portion was used for flow cytometry (FACS) and cytogenetic analyses while the second was fixed in 4% paraformaldehyde (PFA) for immunohistochemistry (IHC). To obtain a single cell suspension, the tissues were first cut into pieces. Thereafter, the cells were physically disaggregated using an 80 μm nylon cell strainer and filtered a second time through a 70 μm nylon cell strainer (BD Biosciences, Erembodegem, Belgium).
Organs were fixed in 4% PFA, trimmed and post-fixed in 70° ethanol. They were then briefly processed using a vacuum inclusion processor and paraffin blocks were prepared. Five micrometer-thick sections were cut from these blocks and the resulting sections were stained with hemotoxylin-eosine (H&E) for histopathological analysis. In addition, IHC was carried out on of the totality of liver and spleen specimens for confirmation of the spread of engrafted cells. The search for single cells or small groups of grafted Hodgkin lymphoma cells was performed using an anti-CD30 antibody (DAKO, France; 1:40, EDTA pH9 pre-treatment) and the Ventana Discovery XT IHC system. Apoptosis and tumour necrosis were analysed.
Microscopic findings were assigned a severity score based upon the following scale: “0”=within physiological limits, “1”=minimal, “2”=mild, “3”=moderate, “4”=marked, “5”=severe. This severity score was attributed according to the size and number of observed lesions.

[2] = system: L540 cell line; test: Clonogenic survival in methylcellulose; format: cell-based, human; settings: any dose (0.1 to 20 μmol)
Description: (§1) In all examples, the human Hodgkin lymphoma-derived cell lines L428, L428-c, KMH2, L591, L540, L1236, HDLM2 and SUP-HD were obtained from Dr Steffen Junker (Aarhus University Denmark). All cell lines were cultured in Gibco RPMI 1640 medium supplemented with Glutamax, 10% FBS and antibiotics at 37° C. […] The immunophenotype, P53 status and MSI characterization of the Hodgkin lymphoma cell lines was determined using anti-CD30, CD15, CD20 and CD14 antibodies.
(§2) This test was performed on four Hodgkin lymphoma cell lines (L428, L428s, KMH2 and L540). Each was cultured with EDO-S101 at doses of 0, 0.1, 0.5, 1, 10 and 20 μmol in DMSO. The cell lines were cultured in methylcellulose (Stem cell Technologies) at a concentration of 10^5/ml at 37° C. and 5% CO2. The surviving fraction was determined by measuring the viability of colonies generated before and after exposure. Only colonies with more than 50 cells were counted. Each data point represents the average and SD from three independent experiments performed in triplicate.

[3] = system: L428s; test: Clonogenic survival in methylcellulose; format: cell-based, human; settings: very low doses 0.1 and 0.5 μmol
Description: as §1, §2

[4] = system: KMH2 cell line; test: Clonogenic survival in methylcellulose; format: cell-based, human; settings: lowest doses 0.1 and 0.5 μmol
Description: as §1, §2

[5] = two doses of 60 mg/kg three weeks apart

## Cn1c(CCCCCCC(=O)NO)nc2cc(N(CCCl)CCCl)ccc21 [EDO-S101]
[1]; 80 mg/kg
  tumour masses in liver and infiltration into other organs: No tumour masses were observed in the liver, nor was infiltration observed into the other organs
  Injection site: Tumour cell necrosis/apoptosis: Marked: 0.0%
  Injection site: Tumour cell necrosis/apoptosis: Mild: 0.0%
  Injection site: Tumour cell necrosis/apoptosis: Minimal: 0.0%
  Injection site: Tumour cell necrosis/apoptosis: Moderate: 0.0%
  Injection site: Tumour cell necrosis/apoptosis: No: 0.0%
  Injection site: Tumour cell necrosis/apoptosis: Overall: 100.0%
  Injection site: Tumour cell necrosis/apoptosis: Severe: 0.0%
  Injection site: Tumour infiltration: Marked: 0.0%
  Injection site: Tumour infiltration: Mild: 0.0%
  Injection site: Tumour infiltration: Minimal: 0.0%
  Injection site: Tumour infiltration: Moderate: 0.0%
  Injection site: Tumour infiltration: No: 0.0%
  Injection site: Tumour infiltration: Overall: 33.3%
  Injection site: Tumour infiltration: Severe: 33.3%
  Liver: Tumour infiltration: Marked: 0.0%
  Liver: Tumour infiltration: Mild: 0.0%
  Liver: Tumour infiltration: Minimal: 0.0%
  Liver: Tumour infiltration: Moderate: 0.0%
  Liver: Tumour infiltration: No: 100.0%
  Liver: Tumour infiltration: Overall: 0.0%
  Liver: Tumour infiltration: Severe: 0.0%
  Tumour presence: Animals with tumour infiltration in liver and in the injection area: 0.0%
  Tumour presence: Overall: 33.3%
[1]; 80 mg/kg or 60 mg/kg
  tumour cell necrosis: No cell necerosis was observed
[1]; 1 * 60 mg/kg
  Injection site: Tumour cell necrosis/apoptosis: Marked: 0.0%
  Injection site: Tumour cell necrosis/apoptosis: Mild: 0.0%
  Injection site: Tumour cell necrosis/apoptosis: Minimal: 50.0%
  Injection site: Tumour cell necrosis/apoptosis: Moderate: 0.0%
  Injection site: Tumour cell necrosis/apoptosis: No: 50.0%
  Injection site: Tumour cell necrosis/apoptosis: Overall: 100.0%
  Injection site: Tumour cell necrosis/apoptosis: Severe: 0.0%
  Injection site: Tumour infiltration: Marked: 50.0%
  Injection site: Tumour infiltration: Mild: 0.0%
  Injection site: Tumour infiltration: Minimal: 0.0%
  Injection site: Tumour infiltration: Moderate: 25.0%
  Injection site: Tumour infiltration: No: 0.0%
  Injection site: Tumour infiltration: Overall: 100.0%
  Injection site: Tumour infiltration: Severe: 25.0%
  Liver: Tumour cell necrosis/apoptosis: Marked: 0.0%
  Liver: Tumour cell necrosis/apoptosis: Mild: 0.0%
  Liver: Tumour cell necrosis/apoptosis: Minimal: 0.0%
  Liver: Tumour cell necrosis/apoptosis: Moderate: 0.0%
  Liver: Tumour cell necrosis/apoptosis: No: 100.0%
  Liver: Tumour cell necrosis/apoptosis: Overall: 0.0%
  Liver: Tumour cell necrosis/apoptosis: Severe: 0.0%
  Liver: Tumour infiltration: Marked: 0.0%
  Liver: Tumour infiltration: Mild: 25.0%
  Liver: Tumour infiltration: Minimal: 25.0%
  Liver: Tumour infiltration: Moderate: 25.0%
  Liver: Tumour infiltration: No: 25.0%
  Liver: Tumour infiltration: Overall: 75.0%
  Liver: Tumour infiltration: Severe: 0.0%
  Tumour presence: Animals with tumour infiltration in liver and in the injection area: 75.0%
  Tumour presence: Overall: 100.0%
[1]; 2 * 60 mg/kg
  Injection site: Tumour cell necrosis/apoptosis: Marked: 33.3%
  Injection site: Tumour cell necrosis/apoptosis: Mild: 66.7%
  Injection site: Tumour cell necrosis/apoptosis: Minimal: 0.0%
  Injection site: Tumour cell necrosis/apoptosis: Moderate: 0.0%
  Injection site: Tumour cell necrosis/apoptosis: No: 0.0%
  Injection site: Tumour cell necrosis/apoptosis: Overall: 100.0%
  Injection site: Tumour cell necrosis/apoptosis: Severe: 0.0%
  Injection site: Tumour infiltration: Marked: 11.1%
  Injection site: Tumour infiltration: Mild: 0.0%
  Injection site: Tumour infiltration: Minimal: 0.0%
  Injection site: Tumour infiltration: Moderate: 0.0%
  Injection site: Tumour infiltration: No: 0.0%
  Injection site: Tumour infiltration: Overall: 11.1%
  Injection site: Tumour infiltration: Severe: 0.0%
  Liver: Tumour cell necrosis/apoptosis: Marked: 0.0%
  Liver: Tumour cell necrosis/apoptosis: Mild: 0.0%
  Liver: Tumour cell necrosis/apoptosis: Minimal: 0.0%
  Liver: Tumour cell necrosis/apoptosis: Moderate: 0.0%
  Liver: Tumour cell necrosis/apoptosis: No: 100.0%
  Liver: Tumour cell necrosis/apoptosis: Overall: 0.0%
  Liver: Tumour cell necrosis/apoptosis: Severe: 0.0%
  Liver: Tumour infiltration: Marked: 0.0%
  Liver: Tumour infiltration: Mild: 11.1%
  Liver: Tumour infiltration: Minimal: 33.3%
  Liver: Tumour infiltration: Moderate: 0.0%
  Liver: Tumour infiltration: No: 55.6%
  Liver: Tumour infiltration: Overall: 44.4%
  Liver: Tumour infiltration: Severe: 0.0%
  Tumour presence: Animals with tumour infiltration in liver and in the injection area: 0.0%
  Tumour presence: Overall: 55.6%
[1]; single 60 or 80 mg/kg or two injections of 60 mg/kg
  severity of tumoural cell infiltration: significant decrease in the severity of tumoural cell infiltration
[1]; single dose of 60 mg/kg
  tumour regression: significant tumour regression
[1]; single dose of 60 mg/kg, 60 mg/kg
  mice with tumour lesions: only one mouse had moderate tumour lesions
[1]; two administrations of 60 mg/kg, versus control and single 60 mg/kg
  tumour regression: Significant tumour regression
[1]; [5]
  infiltration in the liver: Only one mouse exhibited a moderate level of infiltration in the liver
  tumours in organs (liver, spleen, bone marrow): No tumours were observed in any organs
[2]
  clones observed: No clone was observed
[3]
  clones observed: only macrophagic clones being observed
[4]
  clones observed: only a few clones

— patent US20180098969A1, “HODGKIN LYMPHOMA THERAPY” (Purdue Pharmaceutical Products L.P., priority 2016, published 2018)
